In ChEMBL document CHEMBL1129473, “Slow-binding inhibition of gamma-aminobutyric acid aminotransferase by hydrazine analogues” (J Med Chem, 1996):
Structures can show the parent of a compound that is named as a salt.

Legend:
[1] = biological target: 4-aminobutyrate aminotransferase, mitochondrial (Sus scrofa) (UniProt P80147); test: Dissociation constant of the Gamma-amino-N-butyrate transaminase
[2] = biological target: 4-aminobutyrate aminotransferase, mitochondrial (Sus scrofa) (UniProt P80147); test: The Reactivation Kinetic Constant for Gamma-amino-N-butyrate transaminase
[3] = biological target: T1, 4-aminobutyrate aminotransferase, mitochondrial (Sus scrofa, UniProt P80147); test: Inhibitory activity against Gamma-amino-N-butyrate transaminase
T1 sequence (P80147 whole entry): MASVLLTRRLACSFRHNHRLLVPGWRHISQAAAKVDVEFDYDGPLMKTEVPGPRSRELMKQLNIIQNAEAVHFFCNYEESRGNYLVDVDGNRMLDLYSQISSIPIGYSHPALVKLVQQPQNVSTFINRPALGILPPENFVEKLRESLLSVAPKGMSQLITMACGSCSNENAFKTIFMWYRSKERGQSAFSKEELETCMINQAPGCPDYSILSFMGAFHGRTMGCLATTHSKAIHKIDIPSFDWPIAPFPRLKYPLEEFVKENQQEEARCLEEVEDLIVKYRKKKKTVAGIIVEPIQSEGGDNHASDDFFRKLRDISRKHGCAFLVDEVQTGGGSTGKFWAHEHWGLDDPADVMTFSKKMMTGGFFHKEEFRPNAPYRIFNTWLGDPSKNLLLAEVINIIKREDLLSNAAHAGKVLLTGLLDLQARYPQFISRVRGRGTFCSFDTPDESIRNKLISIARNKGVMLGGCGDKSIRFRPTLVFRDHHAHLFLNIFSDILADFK

[4] = biological target: 4-aminobutyrate aminotransferase, mitochondrial (Sus scrofa) (UniProt P80147); test: Inhibitory rate constant against Gamma-amino-N-butyrate transaminase
[5] = biological target: T1, 4-aminobutyrate aminotransferase, mitochondrial; test: The Dissociation Constant for Gamma-amino-N-butyrate transaminase

Sequence of 4-aminobutyrate aminotransferase, mitochondrial (Sus scrofa) (P80147 whole entry): as above

| SMILES | K4 [1] [min⁻¹] | Kreact [2] [min⁻¹] | Ki [3] [nM] | K3 [4] [M⁻¹ s⁻¹] | Kd [5] [nM] |
| --- | --- | --- | --- | --- | --- |
| NNCc1cccc(O)c1 [3-HYDROXYBENZYLHYDRAZINE DIHYDROCHLORIDE] | 0.005 | 0.02 | 300 | 330 | 460 |
| CNN [METHYLHYDRAZINE] | 0.0046 | 4 | 2200 | 34.7 | 2800 |
| NNCCC(=O)O | – | 0.0069 | – | – | < 20 |
